“Also recorded” adds a separate entry of the source. Positions of bridges follow the written chain, without caps; N, C: chain ends. No end group written: not given here.

The test system of series [1] is HEK293 cells.
Series [2] relates to human oxytocin receptor. The following applies: cited from earlier work. The source says: (§1) Compared to the level of identity between the T. castaneum inotocin receptor and its human counterparts (approximately 37–40% similarity ...
For series [3], the system named is human vasopressin V1a receptor. The following applies: cited from earlier work.
Text: as §1

Series [4] has as its system T. castaneum inotocin receptor. As to the kind of experiment: IP1 accumulation, agonist mode (T. castaneum inotocin receptor). The format is cell-based, Tribolium castaneum. From the text:
(§2) The T. castaneum receptor gene was kindly provided by Yoonseong Park (Kansas State University)[8], whereas the L. niger inotocin receptor gene had been cloned and sequenced as per Di Giglio et al.[11]. Both receptor constructs were subsequently cloned into the pEGFP-N1 expression plasmid, generating C-terminal EGFP fusion receptor proteins. Receptors were expressed in HEK293 cells (ATCC, CRL 1573) via transfection using the Lipofectamine 2000® transfection reagent. The use of mammalian cell lines to study the receptors of insects and other invertebrate species, in the same vain as orphan receptors from mammalian genomes, is considered a standard procedure. Various studies have utilized this approach[8],[9],[11]. Whilst such mammalian cell lines may not completely mimic insect cell biology, GPCRs and their signalling is highly homologous across the animal kingdom; it would be unlikely that the insect receptors would mis-fold in a mammalian cell line. Nevertheless, during assay optimization we routinely monitored surface expression of GFP-tagged receptors, and we only proceeded to pharmacological assays, if the receptor localized at the cell membrane. Moreover, most biochemical cell-based functional assays are optimized for mammalian cells. Whilst it is possible that insect cells could be utilized for these assays, it is unknown whether they endogenously express inotocin receptors. […] Accordingly, mammalian cells were cultured in DMEM supplemented with 10% FBS and penicillin/streptomycin (100 U mL^−1) and plated in 6-well plates prior to transfection. When cells had reached confluency, cells were transfected as per the manufacturer’s protocol with 2.5 µg per well of each respective receptor construct using a DNA:Lipofectamine 2000® ratio of 1:3 prepared in serum-free DMEM. After 4–6 h, cells were dissociated by trituration and replated into white opaque 384-well plates (CellStar®, Greiner, Kremsmünster, Austria) at approximately 10,000 cells per well. Cells were cultured for approximately 38–48 h in a humidified incubator at 37 °C and an atmosphere of 5% CO2, and then assayed for second messenger production. Verification of receptor expression was assessed via microscopic examination of membrane localised GFP fluorescence.
(§3) Quantitative measurements of receptor-mediated inositol 1-phosphate (IP1) were performed by competitive immunoassay utilising the IP-One assay kit (CisBio, France). HEK293 cells were prepared as described above and then assayed as per the manufacturer’s protocol. Briefly, at the time of assay, the culture media was removed from cells, and then replaced with IP-One stimulation buffer (HEPES 10 mM, CaCl2 1 mM, MgCl2 0.5 mM, KCl 4.2 mM, NaCl 146 mM, glucose 5.5 mM, LiCl 50 mM, pH 7.4). […] The stimulation was terminated by lysis and the simultaneous addition of homogenous time-resolved fluorescence resonance energy transfer reagents. […] Fluorescence emission measurements at 620 nm and 665 nm were performed using a FlexStation3 plate reader (Molecular Devices, Sunnyvale, CA) or Spark Multimode plate reader (Tecan, Männedorf, Switzerland) at an excitation wavelength of 340 nm. Results were analysed as a ratio of fluorescence intensities of 665 nm to 620 nm.
(§4) Data from cellular assays were analysed using GraphPad Prism 7.03 (GraphPad Software, San Diego). […]

The subject of series [5] is L. niger inotocin receptor. As to the kind of experiment: IP1 accumulation, agonist mode (L. niger inotocin receptor). The note with it: for Emax / LogEC50: HEK293 cells expressing L. niger receptor (C-terminal EGFP fusion), IP-One HTRF assay, mean ± S.E.M. from at least three independent experiments in triplicate; for Emax: 1 h at 37 °C; for LogEC50: pH 7.4, 1 h at 37 °C. The format is cell-based, Lasius niger.
Text: as §2
Quantitative measurements of receptor-mediated inositol 1-phosphate (IP1) were performed by competitive immunoassay utilising the IP-One assay kit (CisBio, France). HEK293 cells were prepared as described above and then assayed as per the manufacturer’s protocol. Briefly, at the time of assay, the culture media was removed from cells, and then replaced with IP-One stimulation buffer (HEPES 10 mM, CaCl2 1 mM, MgCl2 0.5 mM, KCl 4.2 mM, NaCl 146 mM, glucose 5.5 mM, LiCl 50 mM, pH 7.4). Cells were allowed to equilibrate in the stimulation buffer at 37 °C for 15 min, followed by addition of peptide ligands (to final concentrations of 0.1 pM – 10 µM) for subsequent stimulation for 1 h at 37 °C. The stimulation was terminated by lysis and the simultaneous addition of homogenous time-resolved fluorescence resonance energy transfer reagents. The lysates were incubated for a minimum of 1 h at room temperature. Fluorescence emission measurements at 620 nm and 665 nm were performed using a FlexStation3 plate reader (Molecular Devices, Sunnyvale, CA) or Spark Multimode plate reader (Tecan, Männedorf, Switzerland) at an excitation wavelength of 340 nm. Results were analysed as a ratio of fluorescence intensities of 665 nm to 620 nm.
Data from cellular assays were analysed using GraphPad Prism 7.03 (GraphPad Software, San Diego). Concentration-response data were fitted to three- or four-parameter logistic equations to derive estimates of potency (LogEC50) and efficacy (Emax), relative to the maximal inotocin control response. Data from agonist-antagonist interaction experiments were fit to a Schild regression analysis.

The test system of series [6] is T. castaneum inotocin receptor. The following applies: initial characterisation of the T. castaneum receptor; cited from earlier work. From the text: In parallel to characterising the inotocin receptor activity of kalata B7, we sought to identify an antagonist peptide. Our recent study with the L. niger inotocin peptide-receptor system[11] further emphasised the structural homology shared between inotocin receptors and human oxytocin/vasopressin receptors (Fig. 2, Table 1). […] Given this homology, we were interested in the ability of the oxytocin/V1a receptor anta ...

Series [7] deals with T. castaneum inotocin receptor. Briefly: Antagonism of inotocin-mediated IP1 accumulation, Schild analysis. The format is cell-based, Tribolium castaneum. The note with it: HEK293, IP1.
Text: as §2, with “After 4–6 h, cells were dissociated by trituration and replated into white opaque 384-well plates (CellStar®, Greiner, Kremsmünster, Austria) at approximately 10,000 cells per well. Cells were cultured for approximately 38–48 h in a humidified incubator at 37 °C and an atmosphere of 5% CO2, and then assayed for second messenger production.” left out
as §3, with “France).” for “France). HEK293 cells were prepared as described above and then assayed as per the manufacturer’s protocol. Briefly, at the time of assay, the culture media was removed from cells, and then replaced with IP-One stimulation buffer (HEPES 10 mM, CaCl2 1 mM, MgCl2 0.5 mM, KCl 4.2 mM, NaCl 146 mM, glucose 5.5 mM, LiCl 50 mM, pH 7.4).”
as §4

Series [8] concerns the target Tribolium castaneum inotocin receptor (Tribolium castaneum).
The target of series [9] is Lasius niger inotocin receptor (Lasius niger).
Setting [10] is: T. castaneum receptor, IP1 accumulation, HEK293.
The mark [11] stands for this setting: L. niger receptor, IP1 accumulation, HEK293.

As for “kalata B7: plant-derived cyclic peptide (cyclotide) from Oldenlandia affinis, synthesised by Fmoc-SPPS and native chemical ligation (cyclo(GLPVCGETCTLGTCYTQGCTCSWPICKRN); also: oxidized form, disulfides not placed)”, the “effects on cell viability” value in series [1] was “did not observe negative effects on cell viability”. The “activity at human oxytocin receptor (in words)” value in [2] is reported as “partial agonist”. For the same molecule, the “activity at human vasopressin V1a receptor (in words)” value in series [3] was “partial agonist”. Also, the Emax in series [4] (HEK293 cells expressing T. castaneum receptor (C-terminal EGFP fusion), IP-One HTRF assay, 1 h at 37 °C, mean ± S.E.M. from at least three independent experiments in triplicate) came out at 60.3 ± 9.6 % inotocin max. response; in series [5], 86.5 ± 4.7 % inotocin max. response. Further, the LogEC50 in series [4] (HEK293 cells expressing T. castaneum receptor (C-terminal EGFP fusion), IP-One HTRF assay, pH 7.4, 1 h at 37 °C, mean ± S.E.M. from at least three independent experiments in triplicate) is −5.14 ± 0.22 Log[M]; in series [5], −5.66 ± 0.10 Log[M]. For the same molecule, the “agonist activity (in words)” value in series [4] (setting [10]) and in series [5] (setting [11]) was “weak partial agonist” in each case. In addition, the EC50 in series [4] (T. castaneum receptor, IP1 accumulation, HEK293, read-out: potency) stood at 7.2 µM; in series [5] (L. niger receptor, IP1 accumulation, HEK293, read-out: potency) it was 2.2 µM.

For the molecule “oxytocin: reported agonist of the T. castaneum receptor”, the “agonist activity at T. castaneum receptor (in words)” value in [6] was “agonist”.

As for atosiban, the “agonist activity (in words)” value in series [4] (setting [10]) is on record as “lacked agonist activity”. Besides, the “antagonism of inotocin (in words)” value in series [7] (dextral displacement of the inotocin concentration-response curve) is given as “competitively inhibits the T. castaneum inotocin receptor; also recorded: selectively antagonises the T. castaneum receptor”. The estimated functional affinity entry in series [7] (from Schild analysis (pA2), competitive antagonism of inotocin) is “approximately 93 nM”. In [7] (inotocin 1 pM – 10 µM in absence or presence of 100 nM, 1 µM, 3 µM, 10 µM atosiban, Schild analysis, mean ± S.E.M. of three independent experiments in triplicate), the pA2 was 7.03 ± 0.086. Also, the “Schild Slope” value in series [7] (inotocin 1 pM – 10 µM in absence or presence of 100 nM, 1 µM, 3 µM, 10 µM atosiban, mean ± S.E.M. of three independent experiments in triplicate) is given as 1.00 ± 0.085. In series [5], this molecule yielded an Emax of 89.9 ± 4.5 % inotocin max. response and a LogEC50 of −5.81 ± 0.12 Log[M]. Further, the “agonist activity (in words)” value in series [5] (setting [11]) was “partial agonist”.

In the case of CLITNCPRG-NH2 (disulfide 1-6 (inferred)) [inotocin], in series [8], the Emax of receptor-mediated IP1 accumulation in HEK293 cells expressing the T. castaneum inotocin receptor (the reference response) came out at 100% and the LogEC50 of receptor-mediated IP1 accumulation in HEK293 cells expressing the T. castaneum inotocin receptor is -9.63 Log[M]. Further, in series [9], the Emax of receptor-mediated IP1 accumulation in HEK293 cells expressing the L. niger inotocin receptor (the reference response) (% inotocin max. response) was 100 and the LogEC50 of receptor-mediated IP1 accumulation in HEK293 cells expressing the L. niger inotocin receptor is -10.2 Log[M].

B1: kalata B7 (peptide)
peptide: cyclo(GLPVCGETCTLGTCYTQGCTCSWPICKRN)
modifications: disulfide (positions not given here); also: oxidized, disulfide pairing not given here
In series [8], B1 yielded an Emax of receptor-mediated IP1 accumulation in HEK293 cells expressing the T. castaneum inotocin receptor (% inotocin max. response) of 60.3 and a LogEC50 of receptor-mediated IP1 accumulation in HEK293 cells expressing the T. castaneum inotocin receptor of -5.14 Log[M]. Also, in series [9], the Emax of receptor-mediated IP1 accumulation in HEK293 cells expressing the L. niger inotocin receptor (% inotocin max. response) worked out at 86.5 and the LogEC50 of receptor-mediated IP1 accumulation in HEK293 cells expressing the L. niger inotocin receptor is -5.66 Log[M].

For orientation: pA2 means a measure of antagonist potency on a negative log scale.

Source of the values: article PMC6030093, “Discovery of peptide probes to modulate oxytocin-type receptors of insects” (Scientific Reports, 2018).
